Experimental data taken from patent US20090005396A1, “Use of Pyrazolyl-Pyrimidine Derivatives in the Treatment of Pain” (ASTRAZENECA AB, priority 2005, published 2009).

Experiments:
[1] = target: T1, human TrkB kinase (Homo sapiens, UniProt Q16620); assay: TrkB kinase assay (HTRF); type: biochemical; details: intracellular domain of HIS-tagged human TrkB
T1 construct: The intracellular domain of a HIS-tagged human TrkB kinase; HIS; made in house; host or cells: SF9 insect cells
Procedure: TrkB kinase activity is being measured against its ability to phosphorylate synthetic tyrosine residues within a generic polypeptide substrate using homogenous time-resolved fluorescence (HTRF) technology. The intracellular domain of a HIS-tagged human TrkB kinase was expressed in SF9 cells and purified using standard nickel column chromatography. After the kinase is incubated with a biotinylated substrate and ATP for 50 minutes at room temperature, the kinase reaction is stopped by the addition of 60 mM EDTA. The reaction is performed in 384 well microtitre plates and reaction products are detected with the addition of strepavidin-linked and phosphotyrosine-specific antibodies using the Tecan Ultra Evolution Microplate Fluometer after an additional 3-hour incubation at room temperature.
(§1) When tested in the above in-vitro assay the Trk inhibitory activity of the following examples was measured at the following IC50s.

[2] = target: T2, human TrkA kinase (Homo sapiens, UniProt P04629); assay: TrkA kinase assay (AlphaScreen); type: biochemical; details: intracellular domain of His-tagged human TrkA, 20 μM ATP (=Km)
T2 construct: The intracellular domain of a His-tagged human TrkA kinase; His; made in house; host or cells: High Five insect cells
Procedure: TrkA kinase activity is measured in 384-well format using AlphaScreen technology. […] The intracellular domain of a His-tagged human TrkA kinase was expressed in High Five cells. The kinase was incubated with ATP and the biotinylated substrate for 15 minutes at room temperature. The reactions were then stopped by the addition of EDTA, anti-phosphotyrosine antibody (PT-100) coated acceptor beads and streptavidin coated donor beads. After 2 h of incubation in the dark at room temperature, the product was detected using a Fusion Alpha instrument. […] Termination/Detection conditions: 25 mM HEPES pH 7.4, 100 mM NaCl, 48 mM EDTA, 0.1% BSA and 20 μg/ml of donor and acceptor beads.
as §1

[3] = tested on: carrageenan monoarthritis; assay: Rat carrageenan test (carrageenan monoarthritis, pain score); type: in vivo; details: oral, 80 μmol/kg
Procedure: The compounds used according to the invention when given by systemic administration to mice or rats, specifically reduce pain in the rat carrageenan test as described by Tonussi and Ferreira (Pain 1992, 48, 421-427).
Description of the Rat Carrageenan Test
Experimental procedures. Under isoflurane anesthesia, 40 μL of carrageenan (7.5 mg/mL) was injected into the left tibio-tarsal (ankle) joint from the dorsal side. The injection causes a localized inflammation increasing to a maximum between 4 h to 6 h after induction, after which it gradually decreases, and the animals display decreased weight bearing on and guarding of the limb.
(2R)-2-{[5-Chloro-4-(1H-pyrazol-5-ylamino)pyrimidin-2-yl]amino}-2-(4-fluorophenyl)ethanol was administered 30 min before induction of monoarthritis. The rats were placed in an acrylic chamber and videotaped for 5 min from underneath, 2 h, 2 h30, 3 h, 3 h30, 5 h after drug administration. Subsequently, the weight the rats were willing to put on the injected paw was scored as described in the table below, and defined as the “Pain Score”: […]
Data analysis. Two Way Repeated Measures ANOVA (one factor repetition) followed by Newmans-Keuls method for all pairwise multiple comparison procedures (SigmaStat® 2.03) was used to evaluate group effects. The level of significance was set at p<0.05.

[4] = tested on: mechanical hypersensitivity; details: injected into rats with pancreatite; cited from earlier work

T2 sequence (P04629 440-796 limits assumed): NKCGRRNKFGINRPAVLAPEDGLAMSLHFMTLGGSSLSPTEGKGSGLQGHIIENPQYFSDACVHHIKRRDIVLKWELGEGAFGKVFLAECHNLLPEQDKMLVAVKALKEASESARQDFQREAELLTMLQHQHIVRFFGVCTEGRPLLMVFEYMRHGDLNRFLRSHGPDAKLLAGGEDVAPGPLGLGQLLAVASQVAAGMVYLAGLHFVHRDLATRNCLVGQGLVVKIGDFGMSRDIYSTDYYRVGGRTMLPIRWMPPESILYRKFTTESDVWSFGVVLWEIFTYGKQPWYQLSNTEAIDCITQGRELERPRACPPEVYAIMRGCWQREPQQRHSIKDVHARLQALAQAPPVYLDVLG
T1 sequence (Q16620 455-822 limits assumed): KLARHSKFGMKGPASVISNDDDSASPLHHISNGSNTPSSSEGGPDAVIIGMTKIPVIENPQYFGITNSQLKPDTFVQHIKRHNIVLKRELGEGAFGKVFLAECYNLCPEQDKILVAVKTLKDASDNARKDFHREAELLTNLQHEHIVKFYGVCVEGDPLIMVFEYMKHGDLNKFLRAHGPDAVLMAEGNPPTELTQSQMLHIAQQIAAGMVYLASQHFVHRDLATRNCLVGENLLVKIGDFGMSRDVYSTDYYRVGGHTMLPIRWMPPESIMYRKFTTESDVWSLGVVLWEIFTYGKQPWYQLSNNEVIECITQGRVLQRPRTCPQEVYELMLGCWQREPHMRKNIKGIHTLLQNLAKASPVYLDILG

IC50 [1] [nM]	IC50 [2] [nM]	Compound	signs of side-effects [3]	pain score induced by carrageenan monoarthritis ([3]; given 30 min before induction, within 5 hours after administration, p<0.05)	mechanical hypersensitivity [4]
260	75	OC[C@H](Nc1ncc(F)c(Nc2cc(C3CC3)[nH]n2)n1)c1ccc(F)cc1 [(2R)-2-({4-[(5-Cyclopropyl-1H-pyrazol-3-yl)amino]-5-fluoropyrimidin-2-yl}amino)-2-(4-fluorophenyl)ethanol]	–	–	–
–	–	OC[C@H](Nc1ncc(Cl)c(Nc2ccn[nH]2)n1)c1ccc(F)cc1 [(2R)-2-{[5-Chloro-4-(1H-pyrazol-5-ylamino)pyrimidin-2-yl]amino}-2-(4-fluorophenyl)ethanol]	did not show signs of side-effects	significantly reduced	–
220	39	OCC[C@H](Nc1ncc(Cl)c(Nc2cc(C3CC3)[nH]n2)n1)c1ccc(F)cc1 [(3S)-3-({4-[(5-Cyclopropyl-1H-pyrazol-3-yl)amino]-5-chloropyrimidin-2-yl}amino)-3-(4-fluorophenyl)propan-1-ol]	–	–	–
140	35	C[C@H](Nc1ncc(Cl)c(Nc2cc(C3CC3)n[nH]2)n1)c1ccc(F)cc1 [5-Chloro-N^4-(5-cyclopropyl-1H-pyrazol-3-yl)-N^2-[(1S)-1-(4-fluorophenyl)ethyl]pyrimidine-2,4-diamine]	–	–	–
–	–	COC(=O)[C@@]1(O)C[C@H]2O[C@]1(C)n1c3ccccc3c3c4c(c5c6ccccc6n2c5c31)C(=O)NC4 [Compound K252a, K252a]	–	–	could suppress mechanical hypersensitivity
